Source: patent publication US9656962B2, “Ring-contracted morphinans and the use thereof” (Purdue Pharma L.P., priority 2013, dated 2017)

How the values were obtained:
κ-opioid receptor = κ-opioid receptor (Homo sapiens (Human), UniProt P41145); test: κ-opioid receptor [35S]GTPγS functional assay, HEK-293 or CHO cells (Table 4); format: biochemical
μ-opioid receptor = μ-opioid receptor (Homo sapiens (Human), UniProt P35372); test: μ-opioid receptor [35S]GTPγS functional assay, U-2 OS cells (Table 5); format: biochemical
Summary of the method: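 Membranes (0.026 mg/mL) from cells expressing recombinant human μ-opioid receptor in a U-2 OS background were incubated with 0.20 nM [35S]GTPγS, 3 mM GDP and saponin in 20 mM HEPES pH 7.4, 100 mM NaCl, 10 mM MgCl2 for 30 min at about 25 °C. Filter-bound radioactivity counted; sigmoidal dose-response fits gave values, Emax relative to DAMGO.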

[1] = target: human opioid receptor-like receptor (ORL-1) (Homo sapiens (Human), UniProt P41146); test: ORL-1 receptor radioligand binding assay ([3H]-nociceptin); conditions: binding affinity, bound given in μM, read-out: Ki ORL-1
Protocol: ORL-1 Receptor Binding Assay Procedure: Membranes from recombinant HEK-293 cells expressing the human opioid receptor-like receptor (ORL-1) (Perkin Elmer, Shelton, Conn.) was prepared by lysing cells in ice-cold hypotonic buffer (2.5 mM MgCl2, 50 mM HEPES, pH 7.4) (10 ml/10 cm dish) followed by homogenization with a tissue grinder/Teflon pestle. Membranes were collected by centrifugation at 30,000×g for 15 min at 4° C. and pellets resuspended in hypotonic buffer to a final concentration of 1-3 mg/ml. Protein concentrations were determined using the BioRad protein assay reagent with bovine serum albumen as standard. Aliquots of the ORL-1 receptor membranes were stored at −80° C.
Radioligand binding assays (screening and dose-displacement) use 0.1 nM [^3H]-nociceptin (Perkin Elmer, Shelton, Conn.; 87.7 Ci/mmole) with 12 μg membrane protein in a final volume of 500 μl binding buffer (10 mM MgCl2, 1 mM EDTA, 5% DMSO, 50 mM HEPES, pH 7.4). Non-specific binding was determined in the presence of […] unlabeled nociceptin (American Peptide Company). […] Fifty μl/well scintillation cocktail (Perkin Elmer, Shelton, Conn.) was added and plates are counted in a Packard Top-Count for 1 min/well. The data from screening and dose-displacement experiments were analyzed using Microsoft Excel and the curve fitting functions in GraphPad PRISM™, v. […]

NC(=O)[C@@H]1C[C@]23CCN(CC4CC4)[C@H](Cc4ccc(O)cc42)[C@]3(O)C1 [Compound 31, (2R,3aS,4R,9bS)-12-(cyclopropylmethyl)-3a,8-dihydroxy-1,2,3,3a,4,5-hexahydro-4,9b-(epiminoethano)cyclopenta-[a]naphthalene-2-carboxamide]
Emax (κ-opioid receptor; relative to U69,593): 35.3 ± 2.19%
EC50 (κ-opioid receptor; κ GTP): 6.95 ± 0.97 nM
Emax (μ-opioid receptor; relative to DAMGO): 49 ± 3.76%
EC50 (μ-opioid receptor; μ GTP): 2.35 ± 0.32 nM
Ki [1]: > 20 µM
